In patent publication US11976057B2, “MrgX2 antagonists” (GlaxoSmithKline Intellectual Property Development Limited, priority 2020, dated 2024):
pIC50: −log10 of the molar value.

Target: T1, human MRGPRX2 (Homo sapiens, UniProt Q96LB1)
T1 sequence (Q96LB1 1-330): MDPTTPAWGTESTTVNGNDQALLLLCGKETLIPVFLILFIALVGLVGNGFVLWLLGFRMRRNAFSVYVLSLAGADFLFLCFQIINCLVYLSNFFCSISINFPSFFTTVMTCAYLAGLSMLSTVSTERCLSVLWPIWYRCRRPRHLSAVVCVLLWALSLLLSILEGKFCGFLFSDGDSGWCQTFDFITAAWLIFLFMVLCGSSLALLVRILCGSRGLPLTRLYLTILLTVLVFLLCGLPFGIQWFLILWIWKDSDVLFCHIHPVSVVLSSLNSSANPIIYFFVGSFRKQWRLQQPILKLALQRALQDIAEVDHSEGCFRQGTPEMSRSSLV
Experiment: Ca2+ mobilization assay (FLIPR TETRA): inhibition of Cortistatin-14 mediated MRGPRX2 activation

Row | pIC50 | SMILES
1 | ≥ 8.00 | C[C@@H](C(=O)Nc1ccc(Oc2ccc(F)cc2F)cn1)N1CCC(F)(F)[C@@H](c2c[nH]c(=O)c(CN3CCOCC3)c2)C1 [Example 227, (S)-2-((S)-4,4-difluoro-3-(5-(morpholinomethyl)-6-oxo-1,6-dihydropyridin-3-yl)piperidin-1-yl)-N-(5-(2,4-difluorophenoxy)pyridin-2-yl)propanamide]
2 | ≥ 8.00 | C[C@@H](C(=O)Nc1cnc(Oc2ccc(F)cc2F)cn1)N1CCC(F)(F)[C@@H](c2c[nH]c(=O)c(CN3CCOCC3)c2)C1 [Example 229, (S)-2-((S)-4,4-difluoro-3-(5-(morpholinomethyl)-6-oxo-1,6-dihydropyridin-3-yl)piperidin-1-yl)-N-(5-(2,4-difluorophenoxy)pyrazin-2-yl)propanamide]
3 | 5.50 to 7.00 | C[C@@H](C(=O)Nc1ccc(OCC2CC2)nn1)N1CCC(F)(F)[C@@H](c2c[nH]c(=O)c(CN(C)C)c2)C1 [Example 231]
4 | ≥ 8.00 | CC(C(=O)Nc1ccc(Oc2ccc(F)cc2)cn1)N1CCC(F)(F)C(c2c[nH]c(=O)c(CNCCO)c2)C1 (stereo not drawn) [Example 238, 2-(4,4-difluoro-3-(5-(((2-hydroxyethyl)amino)methyl)-6-oxo-1,6-dihydropyridin-3-yl)piperidin-1-yl)-N-(5-(4-fluorophenoxy)pyridin-2-yl)propanamide]
5 | ≥ 8.00 | COCCNCc1cc(C2CN(C(C)C(=O)Nc3ccc(Oc4ccc(F)cc4)cn3)CCC2(F)F)c[nH]c1=O (stereo not drawn) [Example 239, 2-(4,4-difluoro-3-(5-(((2-methoxyethyl)amino)methyl)-6-oxo-1,6-dihydropyridin-3-yl)piperidin-1-yl)-N-(5-(4-fluorophenoxy)pyridin-2-yl)propanamide]
6 | ≥ 8.00 | C[C@@H](C(=O)Nc1ccc(Oc2ccc(F)cc2F)cn1)N1CCC(F)(F)[C@@H](c2c[nH]c(=O)c(CN3CCC(F)(F)CC3)c2)C1 [Example 240, (S)-N-(5-(2,4-difluorophenoxy)pyridin-2-yl)-2-((S)-3-(5-((4,4-difluoropiperidin-1-yl)methyl)-6-oxo-1,6-dihydropyridin-3-yl)-4,4-difluoropiperidin-1-yl)propanamide]
7 | ≥ 8.00 | CNCc1cc([C@H]2CN([C@@H](C)C(=O)Nc3ccc(Oc4ccc(F)cc4F)cn3)CCC2(F)F)c[nH]c1=O [Example 243, (S)-2-((S)-4,4-difluoro-3-(5-((methylamino)methyl)-6-oxo-1,6-dihydropyridin-3-yl)piperidin-1-yl)-N-(5-(2,4-difluorophenoxy)pyridin-2-yl)propanamide]
8 | 5.50 to 7.00 | CC(C(=O)Nc1ccc(F)cn1)N1CCC(F)(F)C(c2c[nH]c(=O)c(C(N)=O)c2)C1 (stereo not drawn) [Example 253]

Further lines, the compound ahead of its results:

Row | SMILES | pIC50
9 | C[C@@H](C(=O)Nc1ccc(OCC2CC2)nn1)N1CCC(F)(F)C(c2ccncc2)C1 (stereo partly drawn) [Example 224, (2S)—N-(6-(cyclopropylmethoxy)pyridazin-3-yl)-2-(4,4-difluoro-3-(pyridin-4-yl)piperidin-1-yl)propanamide] | 5.50 to 7.00
10 | CC(C(=O)Nc1ccc(Oc2ccc(F)cc2)cn1)N1CCC(F)(F)C(c2c[nH]c(=O)c(CN3CCOCC3)c2)C1 (stereo not drawn) [Example 226, 2-(4,4-difluoro-3-(5-(morpholinomethyl)-6-oxo-1,6-dihydropyridin-3-yl)piperidin-1-yl)-N-(5-(4-fluorophenoxy)pyridin-2-yl)propanamide] | 7.00 to 8.00
11 | C[C@@H](C(=O)Nc1ccc(Oc2ncc(F)cc2F)cn1)N1CCC(F)(F)[C@@H](c2c[nH]c(=O)c(CN3CCOCC3)c2)C1 [Example 228, (S)-2-((S)-4,4-difluoro-3-(5-(morpholinomethyl)-6-oxo-1,6-dihydropyridin-3-yl)piperidin-1-yl)-N-(5-((3,5-difluoropyridin-2-yl)oxy)pyridin-2-yl)propanamide] | 7.00 to 8.00
12 | CC(C(=O)Nc1ccc(Oc2ccc(F)cc2)cn1)N1CCC(F)(F)C(c2c[nH]c(=O)c(CN(C)C)c2)C1 (stereo not drawn) [Example 230, 2-(3-(5-((dimethylamino)methyl)-6-oxo-1,6-dihydropyridin-3-yl)-4,4-difluoropiperidin-1-yl)-N-(5-(4-fluorophenoxy)pyridin-2-yl)propanamide] | 7.00 to 8.00
13 | C[C@@H](C(=O)Nc1ccc(F)cn1)N1CCC(F)(F)C(c2c[nH]c(=O)c(C(N)C(F)(F)F)c2)C1 (stereo partly drawn) [Example 232, (2S)-2-(3-(5-(1-amino-2,2,2-trifluoroethyl)-6-oxo-1,6-dihydropyridin-3-yl)-4,4-difluoropiperidin-1-yl)-N-(5-fluoropyridin-2-yl)propanamide] | 5.50 to 7.00
14 | CNCc1cc(C2CN(C(C)C(=O)Nc3ccc(Oc4ccc(F)cc4)cn3)CCC2(F)F)c[nH]c1=O (stereo not drawn) [Example 237, 2-(4,4-difluoro-3-(5-((methylamino)methyl)-6-oxo-1,6-dihydropyridin-3-yl)piperidin-1-yl)-N-(5-(4-fluorophenoxy)pyridin-2-yl)propanamide] | ≥ 8.00
15 | C[C@@H](C(=O)Nc1ccc(Oc2ccc(F)cc2F)cn1)N1CCC(F)(F)[C@@H](c2c[nH]c(=O)c(CNC3CC(F)(F)C3)c2)C1 [Example 241, (S)-2-((S)-3-(5-(((3,3-difluorocyclobutyl)amino)methyl)-6-oxo-1,6-dihydropyridin-3-yl)-4,4-difluoropiperidin-1-yl)-N-(5-(2,4-difluorophenoxy)pyridin-2-yl)propanamide] | ≥ 8.00
16 | C[C@@H](C(=O)Nc1ccc(Oc2ccc(F)cc2F)cn1)N1CCC(F)(F)[C@@H](c2c[nH]c(=O)c(CNCC(F)(F)F)c2)C1 [Example 242, (S)-2-((S)-4,4-difluoro-3-(6-oxo-5-(((2,2,2-trifluoroethyl)amino)methyl)-1,6-dihydropyridin-3-yl)piperidin-1-yl)-N-(5-(2,4-difluorophenoxy)pyridin-2-yl)propanamide] | ≥ 8.00
17 | CNCc1cc([C@H]2CN([C@@H](C)C(=O)Nc3cnc(Oc4ccc(F)cc4F)cn3)CCC2(F)F)c[nH]c1=O [Example 244, (S)-2-((S)-4,4-difluoro-3-(5-((methylamino)methyl)-6-oxo-1,6-dihydropyridin-3-yl)piperidin-1-yl)-N-(5-(2,4-difluorophenoxy)pyrazin-2-yl)propanamide] | ≥ 8.00
18 | CC(C(=O)Nc1ccc(F)cn1)N1CCC(F)(F)C(c2c[nH]c(=O)c(C#N)c2)C1 (stereo not drawn) [Example 249, 2-(3-(5-cyano-6-oxo-1,6-dihydropyridin-3-yl)-4,4-difluoropiperidin-1-yl)-N-(5-fluoropyridin-2-yl)propanamide] | 5.50 to 7.00
19 | CC(C(=O)Nc1cnc(Oc2ccc(F)cc2)cn1)N1CCC(F)(F)C(c2c[nH]c(=O)c(C#N)c2)C1 (stereo not drawn) [Example 250, 2-(3-(5-cyano-6-oxo-1,6-dihydropyridin-3-yl)-4,4-difluoropiperidin-1-yl)-N-(5-(4-fluorophenoxy)pyrazin-2-yl)propanamide] | 5.50 to 7.00
20 | C[C@@H](C(=O)Nc1ccc(Oc2ccc(F)cc2)cn1)N1CCC(F)(F)[C@@H](c2c[nH]c(=O)c(C#N)c2)C1 [Example 251, (S)-2-((S)-3-(5-cyano-6-oxo-1,6-dihydropyridin-3-yl)-4,4-difluoropiperidin-1-yl)-N-(5-(4-fluorophenoxy)pyridin-2-yl)propanamide] | ≥ 8.00
21 | C[C@@H](C(=O)Nc1ccc(Oc2ccc(F)cc2)cn1)N1CCC(F)(F)[C@@H](c2c[nH]c(=O)c(C(N)=O)c2)C1 [Example 252, 5-((S)-4,4-difluoro-1-((S)-1-((5-(4-fluorophenoxy)pyridin-2-yl)amino)-1-oxopropan-2-yl)piperidin-3-yl)-2-oxo-1,2-dihydropyridine-3-carboxamide] | ≥ 8.00
